The source of these data is patent publication US10947242B2, “[1,2,4]triazolo[1,5and#8208;A]pyrimidine compounds as PDE2 inhibitors” (Janssen Pharmaceutica NV, priority 2016, dated 2021).

Holding throughout (type): biochemical
The target in assay [1] is T1, Human recombinant PDE2A (hPDE2A) (Homo sapiens, UniProt O00408).
T1 construct: His tag (inferred from metal chelate purification); made in house; host or cells: Sf9 insect cells (baculovirus)
Kind of assay: In vitro assay PDE2A (SPA, 3H-cGMP hydrolysis). Particulars: for IC50: read-out: hPDE2A pIC50 (converted); for Emax: read-out: hPDE2A Emax.

Assay [2] has as its target T2, Human recombinant PDE3A (hPDE3A) (Homo sapiens, UniProt Q14432).
T2 construct: purchased Scottish Biomedical; host or cells: Sf9 insect cells
The assay is described as follows: In vitro assay PDE3A (SPA, 3H-cAMP hydrolysis).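 As to all read-outs here: the method names PDE3A and the table heading PDE3B.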 As to conditions: for IC50: hPDE3B pIC50, read-out: pIC50 (converted); for Emax: read-out: hPDE3B Emax, read-out: Emax. In a few lines:
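Radiometric SPA measuring [3H]-cAMP hydrolysis (0.4 μM cAMP, 2.4 μCi/ml) over 60 min at room temperature, in Tris pH 7.8 buffer with MgCl2 and EGTA, 1% DMSO. Enzyme: recombinant human brain PDE3A expressed in Sf9 cells, used as partially purified lysate. Counts compared with enzyme-free blanks and vehicle controls.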

In assay [3] the target is T3, Human recombinant PDE10A (hPDE10A) (Homo sapiens, UniProt Q9Y233).
T3 construct: His tag (inferred from metal chelate purification); made in house; host or cells: Sf9 insect cells (baculovirus)
T3 sequence (Q9Y233 267-1055): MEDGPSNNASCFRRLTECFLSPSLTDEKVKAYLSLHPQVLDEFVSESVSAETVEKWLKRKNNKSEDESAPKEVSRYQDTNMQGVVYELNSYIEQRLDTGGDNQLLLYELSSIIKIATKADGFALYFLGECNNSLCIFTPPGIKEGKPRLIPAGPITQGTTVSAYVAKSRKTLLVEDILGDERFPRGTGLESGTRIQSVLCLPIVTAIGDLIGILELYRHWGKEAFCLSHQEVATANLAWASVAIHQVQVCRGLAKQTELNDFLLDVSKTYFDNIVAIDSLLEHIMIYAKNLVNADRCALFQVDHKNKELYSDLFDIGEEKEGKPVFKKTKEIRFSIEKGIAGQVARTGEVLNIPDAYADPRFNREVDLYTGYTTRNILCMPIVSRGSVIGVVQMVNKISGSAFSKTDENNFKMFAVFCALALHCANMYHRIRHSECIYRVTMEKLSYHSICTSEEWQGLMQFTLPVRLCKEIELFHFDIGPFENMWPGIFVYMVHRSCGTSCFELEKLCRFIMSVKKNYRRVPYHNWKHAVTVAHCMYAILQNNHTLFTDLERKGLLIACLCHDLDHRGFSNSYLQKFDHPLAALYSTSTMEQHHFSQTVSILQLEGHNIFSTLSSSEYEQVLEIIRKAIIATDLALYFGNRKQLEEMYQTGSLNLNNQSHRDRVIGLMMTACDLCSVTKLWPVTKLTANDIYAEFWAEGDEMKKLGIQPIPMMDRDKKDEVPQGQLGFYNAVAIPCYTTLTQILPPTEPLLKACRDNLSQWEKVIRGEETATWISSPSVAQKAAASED
The assay is described as follows: In vitro assay PDE10A, human clone (SPA, 3H-cAMP hydrolysis). In a few lines: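 Hydrolysis of 3H-cAMP (60 nM cAMP, 0.008 μCi tracer) proceeded for 60 min at room temperature, with the product detected by SPA bead scintillation counting. The enzyme was hPDE10A from baculovirus-infected Sf9 cells in Tris pH 7.8 buffer with MgCl2 and EGTA, and compounds were at 1% DMSO final. Blanks lacked enzyme.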

Setting [4] is: human recombinant PDE2A, 10 μM cGMP substrate.
Setting [5] is: human clone (h), default, read-out: hPDE10A2 Emax.
Setting [6] is: human clone (h), default, read-out: hPDE10A2 pIC50 (converted).
The mark [7] stands for this setting: human clone by default (no (r) mark), read-out: hPDE10A2 or rPDE10A2 Emax.
The mark [8] stands for this setting: human clone by default (no (r) mark), read-out: hPDE10A2 or rPDE10A2 pIC50 (converted).

Where two headings read alike, the source gives them in different places.

T2 sequence (Q14432 whole entry): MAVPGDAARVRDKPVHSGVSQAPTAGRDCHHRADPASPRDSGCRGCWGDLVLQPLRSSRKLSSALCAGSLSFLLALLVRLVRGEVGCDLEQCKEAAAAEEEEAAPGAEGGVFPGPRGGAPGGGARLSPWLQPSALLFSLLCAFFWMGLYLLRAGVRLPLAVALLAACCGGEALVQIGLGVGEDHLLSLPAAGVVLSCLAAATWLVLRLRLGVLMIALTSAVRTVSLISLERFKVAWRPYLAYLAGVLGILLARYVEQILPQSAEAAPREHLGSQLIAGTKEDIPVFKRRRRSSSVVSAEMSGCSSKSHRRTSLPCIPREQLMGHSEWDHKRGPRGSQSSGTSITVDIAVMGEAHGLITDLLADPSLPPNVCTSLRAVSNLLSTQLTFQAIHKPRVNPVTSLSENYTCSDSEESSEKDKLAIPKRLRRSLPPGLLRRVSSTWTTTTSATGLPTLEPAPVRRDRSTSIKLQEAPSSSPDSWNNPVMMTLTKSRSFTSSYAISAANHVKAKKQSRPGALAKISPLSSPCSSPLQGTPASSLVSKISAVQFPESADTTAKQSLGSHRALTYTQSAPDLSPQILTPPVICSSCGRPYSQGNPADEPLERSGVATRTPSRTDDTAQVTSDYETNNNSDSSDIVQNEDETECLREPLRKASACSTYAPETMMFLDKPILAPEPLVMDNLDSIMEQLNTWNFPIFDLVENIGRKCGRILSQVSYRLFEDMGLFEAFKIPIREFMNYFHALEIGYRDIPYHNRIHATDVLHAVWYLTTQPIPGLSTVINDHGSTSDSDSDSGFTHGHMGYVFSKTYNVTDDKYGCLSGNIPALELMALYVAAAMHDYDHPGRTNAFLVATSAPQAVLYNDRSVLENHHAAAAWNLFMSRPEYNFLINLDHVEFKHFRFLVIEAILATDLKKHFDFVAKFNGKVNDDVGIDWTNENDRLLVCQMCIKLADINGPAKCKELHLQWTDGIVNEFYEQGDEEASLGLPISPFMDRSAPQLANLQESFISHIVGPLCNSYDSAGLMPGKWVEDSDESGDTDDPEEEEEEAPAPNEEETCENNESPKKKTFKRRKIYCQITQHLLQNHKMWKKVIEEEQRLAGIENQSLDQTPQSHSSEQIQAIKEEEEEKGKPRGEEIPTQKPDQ
T1 sequence (O00408 whole entry): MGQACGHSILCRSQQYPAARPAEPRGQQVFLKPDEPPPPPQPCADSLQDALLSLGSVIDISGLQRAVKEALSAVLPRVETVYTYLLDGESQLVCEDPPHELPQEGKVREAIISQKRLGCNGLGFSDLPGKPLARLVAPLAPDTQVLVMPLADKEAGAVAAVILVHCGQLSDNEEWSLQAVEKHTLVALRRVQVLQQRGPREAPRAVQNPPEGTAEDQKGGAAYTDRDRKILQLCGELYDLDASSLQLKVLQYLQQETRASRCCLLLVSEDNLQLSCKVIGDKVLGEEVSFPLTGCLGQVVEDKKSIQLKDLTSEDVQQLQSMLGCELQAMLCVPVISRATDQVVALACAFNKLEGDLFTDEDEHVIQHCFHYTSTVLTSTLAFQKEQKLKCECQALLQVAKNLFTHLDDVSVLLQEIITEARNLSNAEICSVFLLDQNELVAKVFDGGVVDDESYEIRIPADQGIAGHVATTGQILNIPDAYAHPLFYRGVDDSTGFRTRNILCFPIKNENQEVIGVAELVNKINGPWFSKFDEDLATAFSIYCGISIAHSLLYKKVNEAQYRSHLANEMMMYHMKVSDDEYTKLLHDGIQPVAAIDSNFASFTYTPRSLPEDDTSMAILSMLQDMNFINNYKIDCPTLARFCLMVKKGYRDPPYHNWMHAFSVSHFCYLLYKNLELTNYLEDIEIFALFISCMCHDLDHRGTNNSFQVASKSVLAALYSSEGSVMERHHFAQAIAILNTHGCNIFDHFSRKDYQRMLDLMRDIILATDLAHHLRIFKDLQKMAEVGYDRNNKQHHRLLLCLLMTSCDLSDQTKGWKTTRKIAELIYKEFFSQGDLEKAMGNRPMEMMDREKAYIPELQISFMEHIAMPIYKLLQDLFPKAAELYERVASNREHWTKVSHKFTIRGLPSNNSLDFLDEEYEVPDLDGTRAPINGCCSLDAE

The Emax is the size of the effect at its maximum, as opposed to the concentration needed. With `Cc1cnc(C(=O)N2CC[C@@H](C)[C@H](c3cc(C(F)F)nc4ncnn34)C2)cn1` [Compound 232], the IC50 in assay [1] (setting [4]) is 0.214 µM; in assay [1], 0.214 µM; in assay [2], > 10 µM; in assay [3] (setting [6]) it was > 10 µM; in assay [3] (setting [8]) it was > 10 µM. The Emax in assay [1] (human recombinant PDE2A) stood at 99%; in assay [1] it was 99%; in assay [2] it was 31%; in assay [3] (setting [5]) it was 48%; in assay [3] (setting [7]), 48%.

Take `C[C@@H]1CCN(C(=O)c2ncccc2N)C[C@H]1c1cc(C(F)F)nc2ncnn12` [Compound 233]: the IC50 in assay [1] (setting [4]) was 0.575 µM; in assay [1] it was 0.575 µM; in assay [2], > 10 µM; in assay [3] (setting [6]) it was > 10 µM; in assay [3] (setting [8]) it was > 10 µM. Moreover, the Emax worked out at 94% in assay [1] (human recombinant PDE2A); 94% in assay [1]; 10% in assay [2]; 26% in assay [3] (setting [5]); 26% in assay [3] (setting [7]).

Consider `C[C@@H]1CCN(C(=O)c2ccc(C#N)cn2)C[C@H]1c1cc(C(F)F)nc2ncnn12` [Compound 234], for which the IC50 in assay [1] (setting [4]) was 0.513 µM; in assay [1], 0.513 µM; in assay [2] it was > 10 µM; in assay [3] (setting [6]), 8.71 µM; in assay [3] (setting [8]), 8.71 µM. The maximal effect (Emax) in assay [1] (human recombinant PDE2A) worked out at 96%; in assay [1], 96%; in assay [2] it was 22%; in assay [3] (setting [5]), 59%; in assay [3] (setting [7]) it was 59%.

`C[C@@H]1CCN(C(=O)c2ccncc2Cl)C[C@H]1c1cc(C(F)F)nc2ncnn12` [Compound 235]: the IC50 in assay [1] (setting [4]) was 0.123 µM; in assay [1], 0.123 µM; in assay [2], > 10 µM; in assay [3] (setting [6]) it was 5.5 µM; in assay [3] (setting [8]) it was 5.5 µM. In addition, the Emax in assay [1] (human recombinant PDE2A) amounted to 98%; in assay [1] it was 98%; in assay [2] it was 32%; in assay [3] (setting [5]), 67%; in assay [3] (setting [7]), 67%.

For the molecule `C[C@@H]1CCN(C(=O)c2ccc(O)nn2)C[C@H]1c1cc(C(F)F)nc2ncnn12` [Compound 236], the IC50 was 0.209 µM in assay [1] (setting [4]); 0.209 µM in assay [1]; > 10 µM in assay [2]; 7.76 µM in assay [3] (setting [6]); 7.76 µM in assay [3] (setting [8]). Further, the Emax in assay [1] (human recombinant PDE2A) came to 100%; in assay [1], 100%; in assay [2], 18%; in assay [3] (setting [5]), 58%; in assay [3] (setting [7]), 58%.

In the case of `C[C@@H]1CCN(C(=O)c2nccnc2Cl)C[C@H]1c1cc(C(F)F)nc2ncnn12` [Compound 237], the IC50 in assay [1] (setting [4]) was 0.186 µM; in assay [1] it was 0.186 µM; in assay [2] it was > 10 µM; in assay [3] (setting [6]), 8.13 µM; in assay [3] (setting [8]), 8.13 µM. The Emax in assay [1] (human recombinant PDE2A) stood at 97%; in assay [1], 97%; in assay [2], 20%; in assay [3] (setting [5]) it was 51%; in assay [3] (setting [7]), 51%.

As to `C[C@@H]1CCN(C(=O)c2ncc(C#N)cc2Cl)C[C@H]1c1cc(C(F)F)nc2ncnn12` [Compound 238], the IC50 in assay [1] (setting [4]) is 0.38 µM; in assay [1] it was 0.38 µM; in assay [2] it was > 10 µM. The Emax was 94% in assay [1] (human recombinant PDE2A); 94% in assay [1]; 35% in assay [2]; 48% in assay [3] (setting [5]); 48% in assay [3] (setting [7]).

Turning to `C[C@@H]1CCN(C(=O)c2ccncc2C(F)(F)F)C[C@H]1c1cc(C(F)F)nc2ncnn12` [Compound 239], the IC50 in assay [1] (setting [4]) was 0.191 µM; in assay [1], 0.191 µM; in assay [2], > 10 µM; in assay [3] (setting [6]), > 10 µM; in assay [3] (setting [8]), > 10 µM. The Emax came to 96% in assay [1] (human recombinant PDE2A); 96% in assay [1]; 16% in assay [2]; 43% in assay [3] (setting [5]); 43% in assay [3] (setting [7]).

With `C[C@@H]1CCN(C(=O)c2ncc[nH]2)C[C@H]1c1cc(C(F)F)nc2ncnn12` [Compound 240], the IC50 is 1.55 µM in assay [1] (setting [4]); 1.55 µM in assay [1]; > 10 µM in assay [2]; 9.12 µM in assay [3] (setting [6]); 9.12 µM in assay [3] (setting [8]). The Emax in assay [1] (human recombinant PDE2A) is 90%; in assay [1], 90%; in assay [2] it was 9%; in assay [3] (setting [5]) it was 51%; in assay [3] (setting [7]), 51%.

Turning to `C[C@@H]1CCN(C(=O)c2cccc(OC(F)(F)F)c2F)C[C@H]1c1cc(C(F)F)nc2ncnn12` [Compound 241], the IC50 in assay [1] (setting [4]) was 0.0209 µM; in assay [1], 0.0209 µM; in assay [2], 1.74 µM; in assay [3] (setting [6]), 0.269 µM; in assay [3] (setting [8]), 0.269 µM. In addition, the Emax in assay [1] (human recombinant PDE2A) was determined as 97%; in assay [1], 97%; in assay [2] it was 88%; in assay [3] (setting [5]), 94%; in assay [3] (setting [7]) it was 94%.

`C[C@@H]1CCN(C(=O)c2ccc(C(F)(F)F)nc2Cl)C[C@H]1c1cc(C(F)F)nc2ncnn12` [Compound 242]: the IC50 in assay [1] (setting [4]) is 0.135 µM; in assay [1], 0.135 µM; in assay [2], 6.17 µM; in assay [3] (setting [6]) it was 8.13 µM; in assay [3] (setting [8]), 8.13 µM. The Emax in assay [1] (human recombinant PDE2A) is 97%; in assay [1] it was 97%; in assay [2], 67%; in assay [3] (setting [5]), 56%; in assay [3] (setting [7]) it was 56%.

For `C[C@@H]1CCN(C(=O)c2ccno2)C[C@H]1c1cc(C(F)F)nc2ncnn12` [Compound 243], the IC50 is 0.132 µM in assay [1] (setting [4]); 0.132 µM in assay [1]; > 10 µM in assay [2]; 3.63 µM in assay [3] (setting [6]); 3.63 µM in assay [3] (setting [8]). Further, the Emax in assay [1] (human recombinant PDE2A) is 99%; in assay [1], 99%; in assay [2], 13%; in assay [3] (setting [5]), 70%; in assay [3] (setting [7]), 70%.

On to `Cc1ncc(C(=O)N2CC[C@@H](C)[C@H](c3cc(C(F)F)nc4ncnn34)C2)cn1` [Compound 244], for which the Emax in assay [1] was 92%; in assay [2], 12%; in assay [3] (setting [5]), 54%; in assay [3] (setting [7]), 54%. The IC50 in assay [1] was 0.676 µM; in assay [2] it was > 10 µM; in assay [3] (setting [6]) it was 9.33 µM; in assay [3] (setting [8]) it was 9.33 µM.

Turning to `C[C@@H]1CCN(C(=O)c2ccc(F)c(F)c2F)C[C@H]1c1cc(C(F)F)nc2ncnn12` [Compound 245], the maximum response (Emax) in assay [1] came out at 99%; in assay [2], 62%; in assay [3] (setting [5]), 79%; in assay [3] (setting [7]), 79%. Besides, the IC50 was 0.123 µM in assay [1], 5.89 µM in assay [2], 2.19 µM in assay [3] (setting [6]) and 2.19 µM in assay [3] (setting [8]).

As for `CCCOc1cccnc1C(=O)N1CC[C@@H](C)[C@H](c2cc(C(F)F)nc3ncnn23)C1` [Compound 246], the Emax in assay [1] came out at 98%; in assay [2], 25%; in assay [3] (setting [5]), 44%; in assay [3] (setting [7]), 44%. The IC50 was 0.126 µM in assay [1], > 10 µM in assay [2], > 10 µM in assay [3] (setting [6]) and > 10 µM in assay [3] (setting [8]).

In the case of `COc1c(C(=O)N2CC[C@@H](C)[C@H](c3cc(C(F)F)nc4ncnn34)C2)cccc1C(F)(F)F` [Compound 247], the Emax in assay [1] amounted to 98%; in assay [2], 85%; in assay [3] (setting [5]), 77%; in assay [3] (setting [7]), 77%. Moreover, the IC50 in assay [1] was 0.155 µM; in assay [2], 2.04 µM; in assay [3] (setting [6]), 2.88 µM; in assay [3] (setting [8]), 2.88 µM.

In the case of `C[C@@H]1CCN(C(=O)c2ccnnc2)C[C@H]1c1cc(C(F)F)nc2ncnn12` [Compound 248], the Emax in assay [1] is 95%; in assay [2], 2%; in assay [3] (setting [5]) it was 49%; in assay [3] (setting [7]), 49%. For the same molecule, the IC50 in assay [1] is 0.347 µM; in assay [2] it was > 10 µM; in assay [3] (setting [6]), 10.5 µM; in assay [3] (setting [8]), 10.5 µM.

As to `C[C@@H]1CCN(C(=O)c2cncnc2)C[C@H]1c1cc(C(F)F)nc2ncnn12` [Compound 249], the Emax was 95% in assay [1], 10% in assay [2], 45% in assay [3] (setting [5]) and 45% in assay [3] (setting [7]). The IC50 in assay [1] was 0.372 µM; in assay [2] it was > 10 µM; in assay [3] (setting [6]), > 10 µM; in assay [3] (setting [8]), > 10 µM.

In the case of `C[C@@H]1CCN(C(=O)c2cc(F)ccn2)C[C@H]1c1cc(C(F)F)nc2ncnn12` [Compound 250], the Emax in assay [1] stood at 99%; in assay [2], 28%; in assay [3] (setting [5]) it was 64%; in assay [3] (setting [7]), 64%. In addition, the IC50 in assay [1] was 0.132 µM; in assay [2], > 10 µM; in assay [3] (setting [6]), 4.9 µM; in assay [3] (setting [8]) it was 4.9 µM.
